From PMC10653547, “Synergistic effect of two antimicrobial peptides, BP203 and MAP-0403 J-2 with conventional antibiotics against colistin-resistant Escherichia coli and Klebsiella pneumoniae clinical isolates” (PLOS ONE, 2023)
Entries after “also recorded” stand apart in the source; their conditions may differ. Like-named read-outs stand apart in the source and are kept apart here. No end group written: not given here.

What was measured:
[1] = system: sheep red blood cells; experiment: Hemolytic activity assay; format: cell-based; details: at concentrations as high as 200 μg/mL
Procedure: Sheep erythrocytes were employed to assess the hemolytic activity of BP203 and MAP-0403 J-2, following previously described with some modifications. Briefly, defibrinated sheep red blood cells (sRBCs) were centrifuged at 1,000× g, 4°C for 10 min. The packed sRBCs underwent three times washes with phosphate buffer saline (PBS), at pH 7.4, and were subsequently suspended in PBS to achieve a concentration of 4% (v/v). […] Following an incubation period of 1 h at 37°C, the mixtures were centrifuged at room temperature, 1,000× g for 10 min. The supernatants were collected and transferred to a 96-well microplate. Next, absorbance measurement was taken at 540 nm using a microplate reader (Tecan Group, Zurich, Switzerland). Blank, negative and positive controls were established using sRBCs incubated with PBS alone, BSA solution, and 0.1% Triton X-100, respectively. […] The percentage of hemolytic activity was calculated with the following equation: Hemolysis (%) = {(Sample absorbance—PBS absorbance)/(0.1% Triton X-100 absorbance—PBS absorbance)} × 100.

[2] = system: MRC-5 (CCL-171) normal lung fibroblast cells; experiment: Cytotoxicity assay using MTT; format: cell-based, human; details: for Cell viability at highest concentration: 200 μg/mL, 24 h; for IC50: 24 h exposure
Procedure: MRC-5 (CCL-171) cell line, a representative of normal lung fibroblast cells, was used to investigate the cytotoxic effects of two AMPs, BP203 and MAP-0403 J-2. The cells were grown in Dulbecco’s Modified Eagle Medium (DMEM, Cytiva Life Sciences, Marlborough, MA, USA), supplemented with 10% fetal bovine serum (FBS), 1% penicillin (10,000 U/mL) and streptomycin (10,000 μg/mL) (Gibco, Waltham, MA, USA). 2×10^4 cells were seeded into each well of a 96-well plate and allowed to adhere for 24 h. Then, these cells were subjected to exposure to a medium containing a prepared two-fold serial dilution of BP203 or MAP-0403 J-2. […] 3-(4,5-Dimethylthiazol-2-yl)-2,5-Diphenyltetrazolium Bromide (MTT) was introduced into each well to achieve a concentration of 0.5 mg/mL followed by 4 h. incubation. Subsequently, formazan crystals were dissolved through the addition of 100 μL of a solubilizing solution composed of 10% SDS in 0.1 N HCl and the developed color was measured using a microtiter plate reader at an optical density (OD) of 570 nm. Cell viability was calculated as follows: (ODsample/ODcontrol) × 100.

[3] = system: K. pneumoniae ATCC BAA-1706
Procedure: The MICs of BP203 and MAP-0403 J-2 against clinically colistin-resistant E. coli and K. pneumoniae isolates were determined using the broth microdilution method, according to CLSI recommendations. Briefly, the peptides were subjected to serial dilution in cation-adjusted Mueller-Hinton broth (CAMHB) and added to a 96-well microtiter plate (Wuxi NEST Biotechnology, Wuxi, China). Subsequently, bacterial suspensions from freshly mid-log phase cultures were diluted to 10^6 CFU/mL with CAMHB, and introduced to each well containing the peptides.
The antibacterial activity of BP203 and MAP-0403 J-2 was evaluated concerning their response to temperature, pH, serum, and salt ions using the MIC assay, following the previously mentioned procedure. The MIC values of peptides were determined against E. coli ATCC29522 and K. pneumoniae ATCC BAA-1706. […] For the pH stability assay, both peptides were incubated in buffers with different pH values (100 mM buffers: glycine-HCl buffer (pH 2.0), sodium acetate buffer (pH 4.0), sodium phosphate buffer (pH 6.0), Tris-HCl buffer (pH 8.0), and glycine-NaOH buffer (pH 10.0)) for 1 h at 37°C. […] For serum stability assay, both peptides were exposed to 25% and 50% fetal bovine serum (FBS) for 1 h at 37°C, followed by a heat activation step for 30 min at 60°C. Afterward, the peptide solutions were serially diluted and MIC was subsequently determined. […] The serial dilutions of peptides were incubated with tested strains for MIC testing. The MICs were observed after 20–24 h of incubation at 37°C.

| Compound | Hemolysis (in words) [1] | Cell viability at highest concentration [2] [%] | IC50 [2] [µg/mL] | MIC in the presence of physiological salts ([3]; Control, 0) [μg/mL] | MIC in the presence of physiological salts ([3]; FeCl3 1 μM) [μg/mL] | MIC in the presence of physiological salts ([3]; FeCl3 4 μM) [μg/mL] | MIC in the presence of physiological salts ([3]; FeCl3 8 μM) [μg/mL] | MIC in the presence of physiological salts ([3]; MgCl2 0.5 mM) [μg/mL] | MIC in the presence of physiological salts ([3]; MgCl2 1 mM) [μg/mL] | MIC in the presence of physiological salts ([3]; MgCl2 2 mM) [μg/mL] | MIC in the presence of physiological salts ([3]; NaCl 100 mM) [μg/mL] | MIC in the presence of physiological salts ([3]; NaCl 150 mM) [μg/mL] | MIC in the presence of physiological salts ([3]; NaCl 200 mM) [μg/mL] |
| --- | --- | --- | --- | --- | --- | --- | --- | --- | --- | --- | --- | --- | --- |
| CC[C@H](C)[C@H](NC(=O)[C@H](CCCCN)NC(=O)[C@H](CCCCN)NC(=O)[C@H](Cc1ccccc1)NC(=O)[C@H](CC(C)C)NC(=O)[C@H](CCCCN)NC(=O)[C@@H](N)CCCCN)C(=O)N[C@@H](CC(C)C)C(=O)N[C@@H](CCCNC(=N)N)C(=O)N[C@@H](Cc1ccc(O)cc1)C(=O)N[C@@H](CC(C)C)C(N)=O [BP203] | negligible hemolysis; also recorded: no hemolytic activity | 56.01 | > 200 | 4 | 4 | 8 | 8 | 4 | 8 | 8 | 8 | 16 | 16 |
| KWLRRPWRRWR-NH2 [MAP-0403 J-2] | negligible hemolysis; also recorded: no hemolytic activity | 73.43 | > 200 | 16 | 16 | 16 | 32 | 16 | 16 | 16 | 32 | 64 | 64 |
